According to patent US6835567B1, “PNS cell lines and methods of use therefor” (priority 1998, dated 2004):
“Also recorded” adds a separate entry of the source.

Key:
[1] = tested on: immortalized rat DRG cultures; test: βIII tubulin and NF160 immunolabeling, immortalized rat DRG cultures; format: cell-based; conditions: for βIII-tubulin positive cells: 10 ng/mL in combination with NGF, rat serum and retinoic acid, rat tail collagen substrate
[2] = tested on: HDRGVIII-C10.6 cells; test: Whole-cell patch clamp characterization of […]-C10.6; format: cell-based, human; conditions: for I Purinergic (αβmeATP): 100 μM; for I Capsaicin: 1 μM
[3] = tested on: differentiated HDRGVIII-C10 cells; test: Whole-cell patch clamp, ATP current in […]-C10; format: cell-based, human; conditions: 10 μM; differentiated 1-2 weeks
[4] = tested on: differentiated immortalized rat DRG cells; test: Whole-cell patch clamp, ATP current in rat DRG cells; format: cell-based; conditions: for desensitization of elicited currents: 100 μM, 5-second applications, differentiated 3-4 weeks
[5] = tested on: HDRGVIII-C10 cells; test: NF160 immunolabeling after differentiation of […]-C10; format: cell-based; conditions: 10 days with tetracycline, human serum, GDNF, CNTF, NGF plus forskolin (10 μM) or retinoic acid (0.5 μM)
Excerpt: Neuronal differentiation. […] After differentiation, phase-bright cells extending long fasciculating processes were present.

[6] = biological target: T1, capsaicin receptors (Homo sapiens, UniProt Q8NER1); test: Whole-cell patch clamp, capsaicin current in […]-C10; format: cell-based
T1 construct: endogenous in cells

[7] = biological target: T1, capsaicin receptors; test: Cobalt histology for capsaicin sensitivity, […]-C11; format: cell-based
Excerpt: (§1) In certain aspects of the present invention, conditionally-immortalized PNS progenitor cell lines may be used in a variety of in vitro assays and screens. In one such aspect, the cell lines may be used in in vitro assays for agents that inhibit the capsaicin response. Briefly, a clonal neuronal cell line may be differentiated under conditions in which capsaicin responsiveness can be assessed with a cobalt histological method. Capsaicin can be added to the culture in the presence or absence of a candidate agent, and cobalt uptake evaluated. Agents that block cobalt staining may act as capsaicin receptor antagonists.

[8] = tested on: conditionally-immortalized rat neural crest stem cells; test: βIII tubulin immunolabeling, immortalized rat neural crest stem cells; format: cell-based; conditions: with tetracycline, 5 days; LIF 100 ng/ml; EFN = EGF 100 ng/ml, FGF-2 4 ng/ml, NGF 2.0 ng/ml
[9] = tested on: v-myc oncoprotein; test: Immunocytochemistry for v-myc in […]-C10; format: cell-based, human; conditions: after 6 days of tetracycline treatment (75±1.3% in proliferative condition)
[10] = tested on: differentiated immortalized rat DRG cells; test: Whole-cell patch clamp, capsaicin current in rat DRG cells; format: cell-based; conditions: differentiated rat DRG cells (n=6)
[11] = biological target: T1, capsaicin receptors; test: Cobalt histology for capsaicin sensitivity, […]-C10.6; format: cell-based; conditions: 10 μM capsaicin; differentiated 7 days with T, HS, Fsk, G, C, N plus NT-3
Excerpt: as §1

[12] = tested on: HDRGVIII-C11 cells; test: βIII-tubulin-positive neurons after differentiation of […]-C11; format: cell-based, human
[13] = tested on: HDRGVIII-C10.6 cells; test: Peripherin immunolabeling after differentiation of […]-C10.6; format: cell-based, human; conditions: T, HS, Fsk, G, C, N, plus NT-3 (25 ng/ml), 5 days (31±9% without NT-3)

T1 sequence (Q8NER1 whole entry): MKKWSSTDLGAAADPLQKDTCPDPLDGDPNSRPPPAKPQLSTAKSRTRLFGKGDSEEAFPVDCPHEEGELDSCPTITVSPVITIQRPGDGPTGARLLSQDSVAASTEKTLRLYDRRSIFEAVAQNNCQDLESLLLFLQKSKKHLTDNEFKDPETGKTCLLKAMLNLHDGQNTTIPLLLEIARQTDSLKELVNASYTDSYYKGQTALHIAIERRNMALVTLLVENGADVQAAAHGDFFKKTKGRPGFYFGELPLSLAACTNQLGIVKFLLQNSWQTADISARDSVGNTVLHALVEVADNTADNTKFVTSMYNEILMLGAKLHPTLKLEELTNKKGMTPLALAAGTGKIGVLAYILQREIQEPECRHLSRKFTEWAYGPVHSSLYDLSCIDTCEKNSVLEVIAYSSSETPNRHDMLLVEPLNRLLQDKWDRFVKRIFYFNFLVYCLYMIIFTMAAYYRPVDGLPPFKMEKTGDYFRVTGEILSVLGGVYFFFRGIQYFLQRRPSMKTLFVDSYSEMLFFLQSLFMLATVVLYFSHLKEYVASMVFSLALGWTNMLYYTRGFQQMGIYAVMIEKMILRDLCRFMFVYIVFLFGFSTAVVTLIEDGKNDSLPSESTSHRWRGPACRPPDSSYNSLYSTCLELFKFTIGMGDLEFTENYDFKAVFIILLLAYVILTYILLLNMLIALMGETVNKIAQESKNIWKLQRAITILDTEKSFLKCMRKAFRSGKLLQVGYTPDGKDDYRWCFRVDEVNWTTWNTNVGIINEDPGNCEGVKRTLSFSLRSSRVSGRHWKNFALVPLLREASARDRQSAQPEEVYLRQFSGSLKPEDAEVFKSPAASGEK

IL-1β: interleukin-1β
βIII-tubulin positive cells [1]: 33%

NC1=N[C@H](O)[C@H]2[C@H]3O[C@]4(O)O[C@@H]([C@@H](O)[C@@]2(N1)[C@@H]4O)[C@]3(O)CO [TTX, tetrodotoxin]
sensitivity of voltage-gated sodium currents [2]: TTX-sensitive

Nc1ncnc2c1ncn2[C@@H]1O[C@H](COP(=O)(O)CP(=O)(O)OP(=O)(O)O)[C@@H](O)[C@H]1O [αβ-meATP, αβ-methylene-ATP]
currents elicited [3]: Rapidly activating and strongly desensitizing currents
desensitization of elicited currents [4]: ~15%
cells with αβ-meATP responses ([4]; differentiated rat DRG cells): 1 of 20
I Purinergic (αβmeATP) ([2]; Proliferative, held at -80 mV): 29 ± 15 pA
I Purinergic (αβmeATP) ([2]; THSFskGCN, 8 days): 3 ± 3 pA
I Purinergic (αβmeATP) ([2]; THSFskGCN, 11 days): 226 ± 80 pA

C=C[C@@]1(C)CC(=O)[C@]2(O)[C@@]3(C)[C@@H](O)CCC(C)(C)[C@@H]3[C@H](O)[C@H](OC(C)=O)[C@@]2(C)O1 [forskolin]
cells with NF160 staining [5]: 15±2.2%

Oc1cc2c(cc1O)CN(C(=S)NCCc1ccc(Cl)cc1)CCC2 [capsazepine]
effect on response to 1 μM capsaicin ([6]; 20 μM capsazepine): blocked; also recorded: inhibited
effect on capsaicin (10 μM)-induced cobalt labeling ([7]; 100 μM capsazepine): reduced substantially

LIF: leukemia inhibitory factor
βIII tubulin positive cells [8]: 28.4%

CN(C)[C@@H]1C(O)=C(C(N)=O)C(=O)[C@@]2(O)C(O)=C3C(=O)c4c(O)cccc4[C@@](C)(O)[C@H]3C[C@@H]12 [tetracycline]
percentage of v-myc positive cells [9]: 1.1±0.8%
βIII tubulin positive neurons ([1]; tetracycline alone): ~2.5%

COc1cc(CNC(=O)CCCC/C=C/C(C)C)ccc1O [capsaicin]
response to capsaicin ([6]; 1 μM, differentiated cells with neuronal morphology): exhibited responses
response to capsaicin ([6]; prior to differentiation): no immortalized human PNS HDRGVIII-C10 cells exhibited responses
response to capsaicin [10]: did not exhibit responses
cells with neuronal morphology exhibiting cobalt uptake [11]: 30.8±2.9%
cells with neuronal morphology sensitive to capsaicin (cobalt precipitate) ([7]; 10 μM or 100 μM, differentiated with T, HS, Fsk, G, C, N plus NT-3): Approximately 30%
I Capsaicin ([2]; Proliferative, held at -80 mV): 0 pA
I Capsaicin ([2]; THSFskGCN, 8 days): 114 ± 14 pA
I Capsaicin ([2]; THSFskGCN, 11 days): 217 ± 36 pA

Nc1ncnc2c1ncn2[C@@H]1O[C@H](COP(=O)(O)OP(=O)(O)OP(=O)(O)O)[C@@H](O)[C@H]1O [ATP]
desensitization of elicited currents [4]: ~15%
cells with ATP-activated current ([4]; after 1 week of differentiation (n=14)): no cells
cells with ATP-activated current ([4]; after 3 weeks of differentiation): ~30%

CC1=C(/C=C/C(C)=C/C=C/C(C)=C/C(=O)O)C(C)(C)CCC1 [retinoic acid]
cells with NF160 staining [5]: 8.1%

B1: NT-3: neurotrophin-3 (protein, UniProt P20783 139-257, looked up)
Neurotrophin-3: YAEHKSHRGEYSVCDSESLWVTDKSSAIDIRGHQVTVLGEIKTGNSPVKQYFYETRCKEARPVKNGCRGIDDKHWNSQCKTSQTYVRALTSENNKLVGWRWIRIDTSCVCALSRKIGRT
βIII tubulin positive cells expressing NF160 ([1]; NT-3 added to medium containing NGF plus LIF or CNTF (less than 25% in absence of NT-3)): ≥ 65%
cells differentiated into βIII-tubulin-positive neurons ([12]; NT-3 added to standard differentiating medium (1.4±0.6% without NT-3)): 4.0±2.2%
cells expressing peripherin [13]: 43±8%

B2: IL-11: interleukin IL-11, differentiating factor (protein, UniProt P20809 22-199, looked up)
Interleukin-11: PGPPPGPPRVSPDPRAELDSTVLLTRSLLADTRQLAAQLRDKFPADGDHNLDSLPTLAMSAGALGALQLPGVLTRLRADLLSYLRHVQWLRRAGGSSLKTLEPELGTLQARLDRLLRRLQLLMSRLALPQPPPDPPAPPLAPPSSAWGGIRAAHAILGGLHLTLDWAVRGLLLLKTRL
βIII-tubulin positive cells [1]: 34%
βIII-tubulin-positive neurons ([12]; differentiated with T, HS, Fsk, NGF plus IL-11): 1.5±0.9%
